# Data taken from US11076594B2, “Pyrazolone compound or salt thereof, preparation method therefor, herbicide composition and use thereof” (QINGDAO KINGAGROOT CHEMICAL COMPOUNDS CO., LTD., priority 2015, dated 2021).
# Legend:
# Type in all cases: in vivo
# bidens tripartite = experiment: weed control effect evaluation in rice field; set-up: key: Level 10: completely dead; Level 9: above 95% growth control rate; Level 8: above 90% growth control rate; Level 7: above 80% growth control rate; Level 6: above 70% growth control rate; Level 5: above 60% growth control rate; Level 4: above 50% growth control rate; Level 3: above 20% growth control rate; Level 2: 5%-20% growth control rate; Level 1: below 5% growth control rate; details: 125 g/ha ai; rice field pot; 14 days after treatment; resistant to pyrazosulfuron-ethyl
# In short: (§1)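 Seeds sown in flooded rice-field soil in greenhouse pots; sagittaria tubers planted 1-2 days later, water kept at 3-4 cm. WP or SC dilutions dripped on at 0.5-leaf stage (sagittaria at primary leaf stage) at specified effective amounts. Weed growth control scored visually at 14 days, rice at 21 days.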
# echinochloa = experiment: weed control effect evaluation in rice field; set-up: key: Level 10: completely dead; Level 9: above 95% growth control rate; Level 8: above 90% growth control rate; Level 7: above 80% growth control rate; Level 6: above 70% growth control rate; Level 5: above 60% growth control rate; Level 4: above 50% growth control rate; Level 3: above 20% growth control rate; Level 2: 5%-20% growth control rate; Level 1: below 5% growth control rate; details: 125 g/ha ai; rice field pot; 14 days after treatment; resistant to pyrazosulfuron-ethyl
# In short: as §1
# scirpus juncoides = experiment: weed control effect evaluation in rice field; set-up: key: Level 10: completely dead; Level 9: above 95% growth control rate; Level 8: above 90% growth control rate; Level 7: above 80% growth control rate; Level 6: above 70% growth control rate; Level 5: above 60% growth control rate; Level 4: above 50% growth control rate; Level 3: above 20% growth control rate; Level 2: 5%-20% growth control rate; Level 1: below 5% growth control rate; details: 125 g/ha ai; rice field pot; 14 days after treatment; resistant to pyrazosulfuron-ethyl
# In short: as §1
# sagittaria trifolia = experiment: weed control effect evaluation in rice field; set-up: key: Level 10: completely dead; Level 9: above 95% growth control rate; Level 8: above 90% growth control rate; Level 7: above 80% growth control rate; Level 6: above 70% growth control rate; Level 5: above 60% growth control rate; Level 4: above 50% growth control rate; Level 3: above 20% growth control rate; Level 2: 5%-20% growth control rate; Level 1: below 5% growth control rate; details: 125 g/ha ai; rice field pot; 14 days after treatment; resistant to pyrazosulfuron-ethyl
# In short: as §1
# bidens bipinnata = experiment: weed control effect in post-emergence stage (Table 1); set-up: key: Level 10: completely dead; Level 9: above 95% growth control rate; Level 8: above 90% growth control rate; Level 7: above 80% growth control rate; Level 6: above 70% growth control rate; Level 5: above 60% growth control rate; Level 4: above 50% growth control rate; Level 3: above 20% growth control rate; Level 2: 5%-20% growth control rate; Level 1: below 5% growth control rate; details: post-emergence spray at 4-5 leaf stage, 250 g/ha active ingredient with 450 kg/ha water, rated after 3 weeks in greenhouse
# In short: (§2)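 Seeds were sown in pots, covered with 0.5-2 cm soil and grown in a greenhouse. At the 4-5 leaf stage, plants were sprayed with the test compound formulated in acetone, Tween 80 and water. Fresh weight control was rated after 3 weeks.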
# crab grass = experiment: as above; set-up: key: Level 10: completely dead; Level 9: above 95% growth control rate; Level 8: above 90% growth control rate; Level 7: above 80% growth control rate; Level 6: above 70% growth control rate; Level 5: above 60% growth control rate; Level 4: above 50% growth control rate; Level 3: above 20% growth control rate; Level 2: 5%-20% growth control rate; Level 1: below 5% growth control rate; details: post-emergence spray at 4-5 leaf stage, 250 g/ha active ingredient with 450 kg/ha water, rated after 3 weeks in greenhouse
# In short: as §2
# rorippa indica = experiment: as above; set-up: key: Level 10: completely dead; Level 9: above 95% growth control rate; Level 8: above 90% growth control rate; Level 7: above 80% growth control rate; Level 6: above 70% growth control rate; Level 5: above 60% growth control rate; Level 4: above 50% growth control rate; Level 3: above 20% growth control rate; Level 2: 5%-20% growth control rate; Level 1: below 5% growth control rate; details: post-emergence spray at 4-5 leaf stage, 250 g/ha active ingredient with 450 kg/ha water, rated after 3 weeks in greenhouse
# In short: as §2
# Indian mallow = experiment: as above; set-up: key: Level 10: completely dead; Level 9: above 95% growth control rate; Level 8: above 90% growth control rate; Level 7: above 80% growth control rate; Level 6: above 70% growth control rate; Level 5: above 60% growth control rate; Level 4: above 50% growth control rate; Level 3: above 20% growth control rate; Level 2: 5%-20% growth control rate; Level 1: below 5% growth control rate; details: post-emergence spray at 4-5 leaf stage, 250 g/ha active ingredient with 450 kg/ha water, rated after 3 weeks in greenhouse
# In short: as §2
# foxtail = experiment: as above; set-up: key: Level 10: completely dead; Level 9: above 95% growth control rate; Level 8: above 90% growth control rate; Level 7: above 80% growth control rate; Level 6: above 70% growth control rate; Level 5: above 60% growth control rate; Level 4: above 50% growth control rate; Level 3: above 20% growth control rate; Level 2: 5%-20% growth control rate; Level 1: below 5% growth control rate; details: post-emergence spray at 4-5 leaf stage, 250 g/ha active ingredient with 450 kg/ha water, rated after 3 weeks in greenhouse
# In short: as §2
# corn = experiment: post-emergence stage experiment, crop (Table 1); details: post-emergence spray at 4-5 leaf stage, 250 g/ha active ingredient with 450 kg/ha water, rated after 3 weeks in greenhouse
# In short: as §2
# wheat [1] = experiment: post-emergence stage experiment, crop (Table 1); details: post-emergence spray at 4-5 leaf stage, 250 g/ha active ingredient with 450 kg/ha water, rated after 3 weeks in greenhouse
# In short: as §2
# wheat [2] = experiment: wheat field test, crop selectivity, greenhouse spray at 4 leaf stage; details: 4 weeks after treatment
# In short: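 Seeds sown in soil-filled pots, covered 0.5-2 cm, greenhouse-grown; sprayed at 4 leaf stage (2-3 wk); acetone/methyl oleate emulsion/water formulation; 4 wk greenhouse; fresh wt control rate.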
# [3] = 2 g/mu, sprayed at 4 leaf stage
# [4] = 4 g/mu, sprayed at 4 leaf stage
# [5] = 8 g/mu, sprayed at 4 leaf stage
# [6] = 16 g/mu, sprayed at 4 leaf stage
# [7] = 32 g/mu, sprayed at 4 leaf stage
# [8] = 250 g/ha of the active substance
smiles,measurement,setting,value
Cc1nn(C)cc1C(=O)Oc1c(C(=O)c2ccc(C(F)(F)F)c(N3CCCC3=O)c2Cl)c(C)nn1C [Compound 023],Bidens tripartite weed control effect (activity level),bidens tripartite,10
same,Echinochloa weed control effect (activity level),echinochloa,10
same,Scirpus juncoides weed control effect (activity level),scirpus juncoides,10
same,Sagittaria trifolia weed control effect (activity level),sagittaria trifolia,10
same,"weed control effect, Bidens bipinnata (level)",bidens bipinnata,10
same,"weed control effect, Crab grass (level)",crab grass,10
same,"weed control effect, Rorippa indica (level)",rorippa indica,10
same,"weed control effect, Indian mallow (level)",Indian mallow,10
same,"weed control effect, Green foxtail (level)",foxtail,10
same,"effect on crop, Corn (level)",corn,5 (Level 5: above 60% growth control rate)
same,"effect on crop, Wheat (level)",wheat [1],4 (Level 4: above 50% growth control rate)
same,"Wheat (activity level, crop damage)",wheat [2]; [3],1 (Level 1: below 5% growth control rate)
same,"Wheat (activity level, crop damage)",wheat [2]; [4],2 (Level 2: 5%-20% growth control rate)
same,"Wheat (activity level, crop damage)",wheat [2]; [5],3 (Level 3: above 20% growth control rate)
same,"Wheat (activity level, crop damage)",wheat [2]; [6],4 (Level 4: above 50% growth control rate)
same,"Wheat (activity level, crop damage)",wheat [2]; [7],4 (Level 4: above 50% growth control rate)
Cc1nn(C)c(O)c1C(=O)c1ccc(C(F)(F)F)c(N2CCCCC2=O)c1Cl [Compound 035],Bidens tripartite weed control effect (activity level),bidens tripartite,9 (Level 9: above 95% growth control rate)
same,Echinochloa weed control effect (activity level),echinochloa,8 (Level 8: above 90% growth control rate)
same,Scirpus juncoides weed control effect (activity level),scirpus juncoides,10
same,Sagittaria trifolia weed control effect (activity level),sagittaria trifolia,9 (Level 9: above 95% growth control rate)
same,"weed control effect, Bidens bipinnata (level)",bidens bipinnata,9 (Level 9: above 95% growth control rate)
same,"weed control effect, Crab grass (level)",crab grass,8 (Level 8: above 90% growth control rate)
same,"weed control effect, Rorippa indica (level)",rorippa indica,9 (Level 9: above 95% growth control rate)
same,"weed control effect, Indian mallow (level)",Indian mallow,9 (Level 9: above 95% growth control rate)
same,"weed control effect, Green foxtail (level)",foxtail,10
same,"effect on crop, Wheat (level)",wheat [1],0
same,"Wheat (activity level, crop damage)",wheat [2]; [3],0
same,"Wheat (activity level, crop damage)",wheat [2]; [4],0
same,"Wheat (activity level, crop damage)",wheat [2]; [5],0
same,"Wheat (activity level, crop damage)",wheat [2]; [6],0
same,"Wheat (activity level, crop damage)",wheat [2]; [7],0
CCOc1c(C(=O)Oc2c(C(=O)c3ccc(C(F)(F)F)c(N4CCCCC4=O)c3Cl)c(C)nn2C)cnn1C [Compound 037],Bidens tripartite weed control effect (activity level),bidens tripartite,10
same,Echinochloa weed control effect (activity level),echinochloa,10
same,Scirpus juncoides weed control effect (activity level),scirpus juncoides,10
same,Sagittaria trifolia weed control effect (activity level),sagittaria trifolia,10
same,"weed control effect, Bidens bipinnata (level)",bidens bipinnata,10
same,"weed control effect, Crab grass (level)",crab grass,6 (Level 6: above 70% growth control rate)
same,"weed control effect, Rorippa indica (level)",rorippa indica,10
same,"weed control effect, Indian mallow (level)",Indian mallow,10
same,"weed control effect, Green foxtail (level)",foxtail,10
same,"effect on crop, Corn (level)",corn,0
same,"effect on crop, Wheat (level)",wheat [1],0
same,"Wheat (activity level, crop damage)",wheat [2]; [8],0
CCOc1c(C(=O)Oc2c(C(=O)c3ccc(C(F)(F)F)c(-n4cccn4)c3Cl)c(C)nn2C)cnn1C [Compound 071],Bidens tripartite weed control effect (activity level),bidens tripartite,8 (Level 8: above 90% growth control rate)
same,Echinochloa weed control effect (activity level),echinochloa,10
same,Scirpus juncoides weed control effect (activity level),scirpus juncoides,10
same,Sagittaria trifolia weed control effect (activity level),sagittaria trifolia,10
same,"weed control effect, Bidens bipinnata (level)",bidens bipinnata,7 (Level 7: above 80% growth control rate)
same,"weed control effect, Crab grass (level)",crab grass,4 (Level 4: above 50% growth control rate)
same,"weed control effect, Rorippa indica (level)",rorippa indica,10
same,"weed control effect, Indian mallow (level)",Indian mallow,10
same,"weed control effect, Green foxtail (level)",foxtail,8 (Level 8: above 90% growth control rate)
same,"effect on crop, Corn (level)",corn,1 (Level 1: below 5% growth control rate)
same,"effect on crop, Wheat (level)",wheat [1],0
same,"Wheat (activity level, crop damage)",wheat [2]; [8],0
CCOc1c(C(=O)Oc2c(C(=O)c3ccc(C(F)(F)F)c(-n4cc(C)cn4)c3Cl)cnn2C)cnn1C [Compound 081],Bidens tripartite weed control effect (activity level),bidens tripartite,10
same,Echinochloa weed control effect (activity level),echinochloa,10
same,Scirpus juncoides weed control effect (activity level),scirpus juncoides,10
same,Sagittaria trifolia weed control effect (activity level),sagittaria trifolia,10
same,"weed control effect, Bidens bipinnata (level)",bidens bipinnata,10
same,"weed control effect, Crab grass (level)",crab grass,7 (Level 7: above 80% growth control rate)
same,"weed control effect, Rorippa indica (level)",rorippa indica,10
same,"weed control effect, Indian mallow (level)",Indian mallow,10
same,"weed control effect, Green foxtail (level)",foxtail,8 (Level 8: above 90% growth control rate)
same,"effect on crop, Corn (level)",corn,2 (Level 2: 5%-20% growth control rate)
same,"effect on crop, Wheat (level)",wheat [1],0
same,"Wheat (activity level, crop damage)",wheat [2]; [8],0
CCOc1c(C(=O)Oc2c(C(=O)c3ccc(C(F)(F)F)c(-n4cc(C)cn4)c3Cl)c(C3CC3)nn2C)cnn1C [Compound 092],Bidens tripartite weed control effect (activity level),bidens tripartite,9 (Level 9: above 95% growth control rate)
same,Echinochloa weed control effect (activity level),echinochloa,10
same,Scirpus juncoides weed control effect (activity level),scirpus juncoides,10
same,Sagittaria trifolia weed control effect (activity level),sagittaria trifolia,10
same,"weed control effect, Bidens bipinnata (level)",bidens bipinnata,8 (Level 8: above 90% growth control rate)
same,"weed control effect, Crab grass (level)",crab grass,3 (Level 3: above 20% growth control rate)
same,"weed control effect, Rorippa indica (level)",rorippa indica,10
same,"weed control effect, Indian mallow (level)",Indian mallow,10
same,"weed control effect, Green foxtail (level)",foxtail,8 (Level 8: above 90% growth control rate)
same,"effect on crop, Corn (level)",corn,2 (Level 2: 5%-20% growth control rate)
same,"effect on crop, Wheat (level)",wheat [1],1 (Level 1: below 5% growth control rate)
same,"Wheat (activity level, crop damage)",wheat [2]; [8],1 (Level 1: below 5% growth control rate)
CCn1nc(C)c(C(=O)c2ccc(C(F)(F)F)c(-n3cccn3)c2Cl)c1OC(=O)c1cn(C)nc1C [Compound 129],Bidens tripartite weed control effect (activity level),bidens tripartite,10
same,Echinochloa weed control effect (activity level),echinochloa,10
same,Scirpus juncoides weed control effect (activity level),scirpus juncoides,10
same,Sagittaria trifolia weed control effect (activity level),sagittaria trifolia,10
same,"weed control effect, Bidens bipinnata (level)",bidens bipinnata,9 (Level 9: above 95% growth control rate)
same,"weed control effect, Crab grass (level)",crab grass,0
same,"weed control effect, Rorippa indica (level)",rorippa indica,10
same,"weed control effect, Indian mallow (level)",Indian mallow,3 (Level 3: above 20% growth control rate)
same,"weed control effect, Green foxtail (level)",foxtail,10
same,"effect on crop, Corn (level)",corn,3 (Level 3: above 20% growth control rate)
same,"effect on crop, Wheat (level)",wheat [1],1 (Level 1: below 5% growth control rate)
same,"Wheat (activity level, crop damage)",wheat [2]; [8],1 (Level 1: below 5% growth control rate)
